Reference: ChEMBL document CHEMBL1201862, “PubChem BioAssay data set” (2004)
The source made the active and inactive calls. Cut-off read from the data, not from the text of the source: actives have a measured IC50 and inactives only a lower limit.

How the values were obtained:
Type in all cases: functional
[1] = molecular target: T1, Sentrin-specific protease 8 (Homo sapiens, UniProt Q96LD8);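 note: luminescence read-out of SENP8 inhibition, dose-response confirmation following an ultra-high-throughput screen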
T1 sequence (Q96LD8 whole entry): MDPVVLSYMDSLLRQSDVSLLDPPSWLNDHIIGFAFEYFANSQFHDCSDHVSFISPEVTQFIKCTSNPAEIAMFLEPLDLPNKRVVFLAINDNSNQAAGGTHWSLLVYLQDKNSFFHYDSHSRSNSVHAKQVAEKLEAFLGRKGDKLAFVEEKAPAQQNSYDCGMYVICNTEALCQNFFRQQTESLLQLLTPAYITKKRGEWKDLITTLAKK

[2] = molecular target: T2, Sentrin-specific protease 6 (Homo sapiens, UniProt Q9GZR1);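 note: Luminescence-based dose-response confirmatory assay of SENP6 inhibition, following up an ultra-high-throughput screen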
T2 sequence (Q9GZR1 whole entry): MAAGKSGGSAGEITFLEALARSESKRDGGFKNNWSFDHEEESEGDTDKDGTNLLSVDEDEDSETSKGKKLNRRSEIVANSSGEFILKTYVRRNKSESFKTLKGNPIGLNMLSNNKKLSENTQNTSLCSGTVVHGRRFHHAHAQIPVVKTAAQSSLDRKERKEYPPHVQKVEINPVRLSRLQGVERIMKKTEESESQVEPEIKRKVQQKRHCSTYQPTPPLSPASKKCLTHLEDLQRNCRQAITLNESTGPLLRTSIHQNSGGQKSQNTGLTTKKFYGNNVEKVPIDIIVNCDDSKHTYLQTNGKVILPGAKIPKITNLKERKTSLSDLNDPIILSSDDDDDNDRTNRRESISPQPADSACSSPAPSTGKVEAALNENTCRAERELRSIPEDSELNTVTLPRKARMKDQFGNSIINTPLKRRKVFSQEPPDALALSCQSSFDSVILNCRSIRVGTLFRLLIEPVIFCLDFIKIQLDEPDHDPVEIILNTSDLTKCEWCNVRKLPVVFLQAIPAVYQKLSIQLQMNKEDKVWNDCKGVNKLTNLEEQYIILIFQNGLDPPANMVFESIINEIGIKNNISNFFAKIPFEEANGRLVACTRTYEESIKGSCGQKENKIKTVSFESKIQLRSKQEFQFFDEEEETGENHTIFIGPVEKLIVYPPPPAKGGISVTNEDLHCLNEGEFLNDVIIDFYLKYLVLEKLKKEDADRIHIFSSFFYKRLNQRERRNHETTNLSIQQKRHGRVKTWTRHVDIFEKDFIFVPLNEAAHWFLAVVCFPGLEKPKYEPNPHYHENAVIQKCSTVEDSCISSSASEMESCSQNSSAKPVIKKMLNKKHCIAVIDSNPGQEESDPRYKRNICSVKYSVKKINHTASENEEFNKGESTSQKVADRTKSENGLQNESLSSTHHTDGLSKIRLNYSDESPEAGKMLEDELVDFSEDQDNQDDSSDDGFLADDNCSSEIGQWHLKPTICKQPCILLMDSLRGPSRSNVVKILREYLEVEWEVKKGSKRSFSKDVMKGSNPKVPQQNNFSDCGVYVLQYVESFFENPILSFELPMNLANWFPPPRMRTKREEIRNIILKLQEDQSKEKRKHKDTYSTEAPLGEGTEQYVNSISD

Caspase-3 = molecular target: T3, Caspase-3 (Homo sapiens, UniProt P42574);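 note: Dose-response selectivity test against caspase-3 for candidate inhibitors of sentrin-specific proteases (SENPs)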
T3 sequence (P42574 whole entry): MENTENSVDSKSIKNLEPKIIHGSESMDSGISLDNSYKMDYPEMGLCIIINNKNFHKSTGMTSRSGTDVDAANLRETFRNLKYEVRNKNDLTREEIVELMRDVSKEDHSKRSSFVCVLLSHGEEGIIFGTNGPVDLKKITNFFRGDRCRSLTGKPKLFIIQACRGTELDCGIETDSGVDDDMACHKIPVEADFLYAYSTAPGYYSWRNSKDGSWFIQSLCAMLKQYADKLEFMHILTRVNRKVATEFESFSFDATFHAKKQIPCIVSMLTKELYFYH

[3] = molecular target: T4, Sentrin-specific protease 7 (Homo sapiens, UniProt Q9BQF6);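 note: Luminescence-based dose-response confirmation of ultra-high-throughput screening hits, measuring inhibition of SENP7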
T4 sequence (Q9BQF6 whole entry): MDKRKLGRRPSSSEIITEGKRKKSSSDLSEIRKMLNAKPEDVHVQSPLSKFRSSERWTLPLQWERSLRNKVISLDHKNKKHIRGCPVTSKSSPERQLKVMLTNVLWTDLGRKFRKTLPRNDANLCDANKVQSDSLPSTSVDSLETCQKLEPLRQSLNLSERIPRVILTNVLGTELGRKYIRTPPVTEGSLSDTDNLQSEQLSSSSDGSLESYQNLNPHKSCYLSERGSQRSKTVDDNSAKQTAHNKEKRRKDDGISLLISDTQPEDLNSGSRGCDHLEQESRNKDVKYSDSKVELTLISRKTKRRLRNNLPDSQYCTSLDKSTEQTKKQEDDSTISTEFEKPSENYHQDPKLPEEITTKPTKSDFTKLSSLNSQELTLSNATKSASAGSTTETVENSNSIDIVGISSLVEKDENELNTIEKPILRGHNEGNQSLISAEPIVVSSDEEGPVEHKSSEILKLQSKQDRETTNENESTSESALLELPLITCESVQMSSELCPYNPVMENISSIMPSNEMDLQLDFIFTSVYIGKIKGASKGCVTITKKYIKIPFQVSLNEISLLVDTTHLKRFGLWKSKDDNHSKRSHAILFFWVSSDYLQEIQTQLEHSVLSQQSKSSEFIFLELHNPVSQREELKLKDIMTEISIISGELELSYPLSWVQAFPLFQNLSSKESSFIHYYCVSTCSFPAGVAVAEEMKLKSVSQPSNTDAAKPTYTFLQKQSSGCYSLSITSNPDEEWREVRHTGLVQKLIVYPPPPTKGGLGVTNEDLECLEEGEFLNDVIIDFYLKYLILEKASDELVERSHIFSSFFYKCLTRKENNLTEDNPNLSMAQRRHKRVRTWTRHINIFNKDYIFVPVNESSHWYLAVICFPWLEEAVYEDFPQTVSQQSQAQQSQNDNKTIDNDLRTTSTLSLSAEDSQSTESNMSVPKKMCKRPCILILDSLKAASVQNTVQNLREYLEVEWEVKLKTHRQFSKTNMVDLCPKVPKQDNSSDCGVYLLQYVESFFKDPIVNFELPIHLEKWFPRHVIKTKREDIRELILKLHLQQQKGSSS

Measured: IC50

O=[N+]([O-])c1ccc(O)c(C2=NNC(c3ccccc3F)C2)c1 (stereo not drawn)
active: [1] 54.5 µM | [2] 43.5 µM | Caspase-3 68.6 µM | [3] 41.6 µM

Cc1oc2c(c1C(=O)N1CCC(C)CC1)C(=O)c1ccccc1C2=O
active: [1] 23.6 µM | [2] 13.7 µM | Caspase-3 10.2 µM | [3] 40.6 µM
